According to patent EP0343830A2, “Ring-substituted 2-amino-1,2,3,4-tetrahydronaphthalenes” (ELI LILLY AND COMPANY, priority 1988, dated 1989):
Structures can show the parent of a compound that is named as a salt.

The compounds below were run against T1, 5HT UPTAKE (Rattus norvegicus, UniProt P31652) (assay: Inhibition of synaptosomal uptake of 3H-serotonin (3H-5HT) in vitro, rat cerebral cortex synaptosomes). Conditions: concentration needed to inhibit the uptake of 3H-5HT by 50%; rat cortical synaptosomes, 37°C, 5 min, 50 nM 3H-5HT.
T1 construct: Crude synaptosomal preparations were isolated after differential centrifugation; from tissue; host or cells: rat cerebral cortex, crude synaptosomes
T1 sequence (P31652 whole entry): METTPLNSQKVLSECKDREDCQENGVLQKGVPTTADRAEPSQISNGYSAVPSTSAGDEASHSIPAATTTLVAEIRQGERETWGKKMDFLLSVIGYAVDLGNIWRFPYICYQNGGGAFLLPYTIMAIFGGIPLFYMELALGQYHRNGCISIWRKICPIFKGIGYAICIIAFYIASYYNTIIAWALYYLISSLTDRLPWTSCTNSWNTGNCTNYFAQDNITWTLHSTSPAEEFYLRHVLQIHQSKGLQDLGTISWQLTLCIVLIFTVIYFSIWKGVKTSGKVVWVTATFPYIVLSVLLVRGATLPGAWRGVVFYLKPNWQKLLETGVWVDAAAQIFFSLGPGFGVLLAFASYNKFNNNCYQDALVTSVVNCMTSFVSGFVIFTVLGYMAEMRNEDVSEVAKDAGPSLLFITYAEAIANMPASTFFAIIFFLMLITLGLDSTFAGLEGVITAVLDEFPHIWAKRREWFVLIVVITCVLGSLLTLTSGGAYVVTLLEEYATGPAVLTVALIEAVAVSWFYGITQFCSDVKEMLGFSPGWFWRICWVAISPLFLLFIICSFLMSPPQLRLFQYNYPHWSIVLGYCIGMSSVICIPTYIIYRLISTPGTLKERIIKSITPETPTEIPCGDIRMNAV
Assay type: biochemical, Sprague-Dawley rats
Method: This general procedure is set forth in Wong et al., Drug Development Research 6:397-403 (1985).
Male Sprague-Dawley rats (110-150 g) from Harlan Industries (Cumberland, IN) were fed Purina Chow ad libitum for at least 3 days before being used in the studies. Rats were killed by decaptiation. Whole brains were removed and dissected. Cerebral cortex was homogenized in 9 volumes of a medium containing 0.32 M sucrose and 10 mM glucose. Crude synaptosomal preparations were isolated after differential centrifugation at 1,000 g for 10 min. and 17,000 g for 28 min. The final pellets were suspended in the same medium and kept in ice until use within the same day.
Synaptosomal uptake of ³H-serotonin (³H-5-hydroxytryptamine, ³H-5HT) was determined as follows: Cortical synaptosomes (equivalent to 1 mg of protein) were incubated at 37°C for 5 min in 1 ml of Krebs-bicarbonate medium containing also 10 mM glucose, […], 1 mM ascorbic acid, 0.17 mM EDTA and 50 nM ³H-5HT. The reaction mixture was immediately diluted with 2 ml of ice-chilled Krebs-bicarbonate buffer and filtered under vacuum with a cell harvester (Brandel, Gaithersburg, MD). Filters were rinsed twice with approximately 5 ml of ice-chilled 0.9% saline and were transferred to a counting vial containing 10 ml of scintillation fluid (PCS, Amersham, Arlington Heights, IL). Radioactivity was measured by a liquid scintillation spectrophotometer. Accumulation of ³H-5HT at 4°C represented the background and was subtracted from all samples.
The results of the evaluation of various compounds of the present invention are set forth below in Table I. In Table I, the first column provides the Example Number of the compound evaluated; the next 7 columns identify the structure of the compound evaluated when taken with the formula set forth in the heading; the next-succeeding column identifies the salt form of the compound evaluated; and the final column provides the amount of the test compound expressed in nanomolar concentration needed to inhibit the uptake of ³H-5HT by 50%, and is indicated in Table I as IC₅₀. Numbers in parentheses, if any, represent percent inhibition at 1000 nM.

| Structure (SMILES) | IC50 [nM] |
| --- | --- |
| C[C@@H]1c2ccc(Cl)cc2CC[C@@H]1N1CCNCC1 (racemic) [Example 33, cis-1-Methyl-2-piperazinyl-6-chloro-1,2,3,4-tetrahydronaphthalene dihydrochloride] | 12 |
| COc1ccc(Br)c2c1C(C)C(N1CCNCC1)CC2 (single isomer, unassigned) [Example 19, 1-Methyl-2-piperazinyl-5-bromo-8-methoxy-1,2,3,4-tetrahydronaphthalene dihydrochloride] | 70 |
| C[C@@H]1c2ccc(Cl)cc2CC[C@@H]1N1CCNCC1 (single isomer, unassigned; (+)) [Example 33a, (+)cis-1-Methyl-2-piperazinyl-6-chloro-1,2,3,4-tetrahydronaphthalene dihydrochloride dihydrate] | 84 |
| C[C@@H]1c2ccc(Cl)cc2CC[C@@H]1N1CCNCC1 (single isomer, unassigned; (-)) [Example 33b, (-)cis-1-Methyl-2-piperazinyl-6-chloro-1,2,3,4-tetrahydronaphthalene dihydrochloride dihydrate] | 8.2 |
| COc1cccc2c1CC(N1CCN(C)CC1)CC2 (stereo not shown) [Example 1, 2-(Methylpiperazinyl)-8-methoxy-1,2,3,4-tetrahydronaphthalene dihydrochloride] | 57 |
| COc1cccc2c1CC(N1CCNCC1)CC2 (stereo not shown) [Example 2, 2-Piperazinyl-8-methoxy-1,2,3,4-tetrahydronaphthalene dihydrochloride] | 90 |
| Clc1cccc2c1CC(N1CCNCC1)CC2 (stereo not shown) [Example 3, 2-Piperazinyl-8-chloro-1,2,3,4-tetrahydronaphthalene dimaleate] | 83 |
| CN1CCN(C2CCc3cccc(Cl)c3C2)CC1 (stereo not shown) [Example 4, 2-(N-methylpiperazinyl)-8-chloro-1,2,3,4-tetrahydronaphthalene dimaleate] | 35 |
| Clc1cccc2c1CC(N1CCCNCC1)CC2 (stereo not shown) [Example 5, 2-(Homopiperazinyl)-8-chloro-1,2,3,4-tetrahydronaphthalene dimaleate] | 260 |
| CN1CCN(C2CCc3cccc(F)c3C2)CC1 (stereo not shown) [Example 6, 2-(N-methylpiperazinyl)-8-fluoro-1,2,3,4-tetrahydronaphthalene dimaleate] | 180 |
| Cc1cccc2c1CC(N1CCN(C)CC1)CC2 (stereo not shown) [Example 7, 2-(N-Methylpiperazinyl)-8-methyl-1,2,3,4-tetrahydronaphthalene dihydrochloride] | 87 |
| Cc1ccc(C)c2c1CCC(N1CCN(C)CC1)C2 (stereo not shown) [Example 8, 2-(N-Methylpiperazinyl)-5,8-dimethyl-1,2,3,4-tetrahydronaphthalene dimaleate] | 140 |
| CN1CCN(C2CCc3cccc(Br)c3C2)CC1 (stereo not shown) [Example 9, 2-(N-Methylpiperazinyl)-8-bromo-1,2,3,4-tetrahydronaphthalene dimaleate] | 90 |
| COc1ccc(OC)c2c1CCC(N1CCN(C)CC1)C2 (stereo not shown) [Example 10, 2-(N-methylpiperazinyl)-5,8-dimethoxy-1,2,3,4-tetrahydronaphthalene dihydrochloride] | 100 |
| CC1c2c(Cl)cccc2CCC1N1CCN(C)CC1 (stereo not shown) [Example 11, 1-Methyl-2-(N-methylpiperazinyl)-8-chloro-1,2,3,4-tetrahydronaphthalene dimaleate] | 650 |
| CC1c2c(Cl)cccc2CCC1N1CCNCC1 (stereo not shown) [Example 12, 1-Methyl-2-piperazinyl-8-chloro-1,2,3,4-tetrahydronaphthalene dihydrochloride] | 270 |
| CN1CCN(C2CCc3cccc(O)c3C2)CC1 (stereo not shown) [Example 14, 2-(N-Methylpiperazinyl)-8-hydroxy-1,2,3,4-tetrahydronaphthalene dihydrobromide] | 50 |
| COc1ccc(Br)c2c1CC(N1CCN(C)CC1)CC2 (stereo not shown) [Example 15, 2-(N-Methylpiperazinyl)-5-bromo-8-methoxy-1,2,3,4-tetrahydronaphthalene dihydrochloride] | 12 |
| COc1ccc(Br)c2c1CC(N1CCNCC1)CC2 (stereo not shown) [Example 16, 2-Piperazinyl-5-bromo-8-methoxy-1,2,3,4-tetrahydronaphthalene dihydrochloride] | 3.7 |
| Cc1ccc(Br)c2c1CC(N1CCN(C)CC1)CC2 (stereo not shown) [Example 17, 2-(N-methylpiperazinyl)-5-bromo-8-methyl-1,2,3,4-tetrahydronaphthalene dihydrochloride] | 17 |

| Structure (SMILES) | IC50 [nM] |
| --- | --- |
| CSc1cccc2c1CC(N1CCN(C)CC1)CC2 (stereo not shown) [Example 18, 2-(N-methylpiperazinyl)-8-methylthio-1,2,3,4-tetrahydronaphthalene dimaleate] | 40 |
| COc1ccc(Cl)c2c1CC(N1CCN(C)CC1)CC2 (stereo not shown) [Example 21, 2-(N-methylpiperazinyl)-5-chloro-8-methoxy-1,2,3,4-tetrahydronaphthalene dihydrochloride] | 16 |
| COc1ccc(I)c2c1CC(N1CCN(C)CC1)CC2 (stereo not shown) [Example 22, 2-(N-methylpiperazinyl)-5-iodo-8-methoxy-1,2,3,4-tetrahydronaphthalene dihydrochloride] | 23 |
| COc1ccc(C=O)c2c1CC(N1CCN(C)CC1)CC2 (stereo not shown) [Example 23, 2-(N-methylpiperazinyl)-5-formyl-8-methoxy-1,2,3,4-tetrahydronaphthalene dihydrochloride hydrate] | 10 |
| COc1ccc(C#N)c2c1CC(N1CCN(C)CC1)CC2 (stereo not shown) [Example 24, 2-(N-methylpiperazinyl)-5-cyano-8-methoxy-1,2,3,4-tetrahydronaphthalene dihydrochloride] | 12 |
| Clc1ccc2c(c1)CCC(N1CCNCC1)C2 (stereo not shown) [Example 25, 2-Piperazinyl-6-chloro-1,2,3,4-tetrahydronaphthalene dihydrochloride] | 100 |
| Brc1ccc2c(c1)CCC(N1CCNCC1)C2 (stereo not shown) [Example 26, 2-Piperazinyl-6-bromo-1,2,3,4-tetrahydronaphthalene dihydrochloride] | 350 |
| Fc1ccc2c(c1)CCC(N1CCNCC1)C2 (stereo not shown) [Example 27, 2-Piperazinyl-6-fluoro-1,2,3,4-tetrahydronaphthalene dihydrochloride] | 340 |
| Cc1ccc2c(c1)CCC(N1CCNCC1)C2 (stereo not shown) [Example 28, 2-Piperazinyl-6-methyl-1,2,3,4-tetrahydronaphthalene dihydrochloride] | 210 |
| COc1ccc2c(c1)CCC(N1CCNCC1)C2 (stereo not shown) [Example 29, 2-Piperazinyl-6-methoxy-1,2,3,4-tetrahydronaphthalene dihydrochloride] | 750 |
| Clc1cc2c(cc1Cl)CC(N1CCNCC1)CC2 (stereo not shown) [Example 30, 2-Piperazinyl-6,7-dichloro-1,2,3,4-tetrahydronaphthalene dihydrochloride] | 115 |
| CN1CCN(C2CCc3cc(Br)ccc3C2)CC1 (stereo not shown) [Example 31, 2-(N-Methylpiperazinyl)-6-bromo-1,2,3,4-tetrahydronaphthalene dihydrochloride] | 520 |
| CN1CCN(C2CCc3cc(Cl)ccc3C2)CC1 (stereo not shown) [Example 32, 2-(N-Methylpiperazinyl)-6-chloro-1,2,3,4-tetrahydronaphthalene dihydrochloride] | 450 |
| CC1c2ccccc2CCC1N1CCNCC1 (stereo not shown) [Example 34, 1-Methyl-2-piperazinyl-1,2,3,4-tetrahydronaphthalene dihydrochloride] | 59 |
| CC1c2ccccc2CCC1N1CCN(C)CC1 (stereo not shown) [Example 35, 1-Methyl-2-(N-methylpiperazinyl-1,2,3,4-tetrahydronaphthalenedihydrochloride] | 490 |
| Clc1ccc2c(c1)CCC(N1CCCNCC1)C2 (stereo not shown) [Example 36, 2-Homopiperazinyl-6-chloro-1,2,3,4-tetrahydronaphthalene dihydrochloride] | 240 |
| Oc1ccc2c(c1)CCC(N1CCNCC1)C2 (stereo not shown) [Example 37, 2-Piperazinyl-6-hydroxy-1,2,3,4-tetrahydronaphthalene dihydrobromide] | 1000 |
| COc1ccc(C(F)F)c2c1CC(N1CCN(C)CC1)CC2 (stereo not shown) [Example 38, 2-(N-Methylpiperazinyl)-5-difluoromethyl-8-methoxy-1,2,3,4-tetrahydronaphthalene dimaleate] | 23 |
| CSc1ccc2c(c1)CCC(N1CCN(C)CC1)C2 (stereo not shown) [Example 39, 2-(N-Methylpiperizinyl)-6-methylthio-1,2,3,4-tetrahydronaphthalene dihydrochloride] | 434 |
| CC1c2ccc(Br)cc2CCC1N1CCNCC1 (stereo not shown) [Example 40, 1-Methyl-2-piperazinyl-6-bromo-1,2,3,4-tetrahydronaphthalene dihydrochloride] | 34 |
